Results on 35 molecules are retold here after ChEMBL document CHEMBL4483862, “Open-source discovery of chemical leads for next-generation chemoprotective antimalarials” (2018).

This assay has as its system Plasmodium berghei. Kind of assay: Luciferase/luciferin-expressing antifolate-resistant parasites were used to infect a culture of HepG2 cells that were pre-incubated with compounds. Infected hepatocytes emit light due to the luciferase reaction. Assay results are presented as the percent inhibition of light emission compared to control. […]. In kind it is functional. As to conditions: sporozoite; for IC90: read-out: LUCIFERASE INFECTION ASSAY - IC90.

The mark [1] stands for this setting: read-out: LUCIFERASE INFECTION ASSAY - IC50.

Turning to `Cc1ccc(C(=O)c2ccccc2C(=O)OC(C)C(=O)N(Cc2ccccc2)Cc2ccccc2)cc1` (stereo not given), the IC90 is 9.62 µM. The IC50 (HEPG2TOX_HILL_SLOPE 7.35, HEPG2TOX_R_SQUARED 0.243, PBLUC_HILL_SLOPE 15.7, PBLUC_R_SQUARED 0.159, read-out: LUCIFERASE INFECTION ASSAY - IC50) was 8.36 µM.
Take `Fc1ccc(-c2ccnc3n[nH]c(C4CC4)c23)cc1Cl`: the 90% effect concentration (IC90) was more than 10 µM. Besides, for the setting “HEPG2TOX_HILL_SLOPE 9.31, HEPG2TOX_R_SQUARED 0.217, read-out: LUCIFERASE INFECTION ASSAY - IC50”, the IC50 was more than 10 µM.
On to `O=C(c1ccc2cc[nH]c2c1)N1CCN(C/C=C/c2ccccc2)CC1`, for which the IC90 turned out to be 9.08 µM. For the same molecule, the IC50 under setting [1] came to 7.41 µM.
`Oc1cccc(-c2cnc3ccc(-c4cccc5ncccc45)nn23)c1`: the IC90 is more than 10 µM. Moreover, under “HEPG2TOX_HILL_SLOPE 3.26, HEPG2TOX_R_SQUARED 0.941, PBLUC_HILL_SLOPE 1.24, PBLUC_R_SQUARED 0.528, read-out: LUCIFERASE INFECTION ASSAY - IC50”, the IC50 stood at 1.84 µM.
Regarding `Cn1c[n+](C2=C(NS(=O)(=O)c3ccc([N+](=O)[O-])cc3)C(=O)c3ccccc3C2=O)c2ccccc21`, the IC90 turned out to be 5.03 µM. Further, under setting [1], the IC50 was determined as 2.53 µM.
In the case of `CN(C)S(=O)(=O)c1cccc(NC(=O)c2ccc(-n3cnc4ccccc43)cc2)c1`, the IC90 is 6.32 µM. For the same molecule, the IC50 (HEPG2TOX_HILL_SLOPE 0.179, HEPG2TOX_R_SQUARED 0.448, PBLUC_HILL_SLOPE 2.55, PBLUC_R_SQUARED 0.642, read-out: LUCIFERASE INFECTION ASSAY - IC50) was determined as 2.67 µM.
Turning to `CCCCN1C(=O)/C(=C\c2ccc(O)c(OCC)c2)NC1=S`, the concentration for an effect of 90% (IC90) was more than 10 µM. Where the note is “PBLUC_HILL_SLOPE 2.35, PBLUC_R_SQUARED 0.305, read-out: LUCIFERASE INFECTION ASSAY - IC50”, the IC50 turned out to be 6.33 µM.
`COc1ccc(NC(=O)C2Cc3c(-c4cccc(C(C)=O)c4)ccnc3O2)cc1OC` (stereo not given): the IC90 is more than 7.89 µM. The IC50 (FFLUC_HILL_SLOPE 0.226, FFLUC_R_SQUARED 0.216, HEPG2TOX_HILL_SLOPE 3.1, HEPG2TOX_R_SQUARED 0.695, PBLUC_HILL_SLOPE 3.79, PBLUC_R_SQUARED 0.351, read-out: LUCIFERASE INFECTION ASSAY - IC50) turned out to be 4.93 µM.
On to `OC(c1cn2cc(-c3ccc(F)cc3)nc2s1)(C(F)(F)F)C(F)(F)F`, for which the IC90 was found to be 6.57 µM. Further, the IC50 (PBLUC_HILL_SLOPE 0.791, PBLUC_R_SQUARED 0.914, read-out: LUCIFERASE INFECTION ASSAY - IC50) is 0.408 µM.
`CCN(CC)CCNC(=O)c1ccc(-c2ccccc2)cc1`: the IC90 was more than 11.1 µM. Moreover, the IC50 (PBLUC_HILL_SLOPE 0.701, PBLUC_R_SQUARED 0.65, read-out: LUCIFERASE INFECTION ASSAY - IC50) came out at 5.34 µM.
As for `CCCCNC(=O)c1c(NC(=O)c2ccc(Cl)cc2Cl)nc2ccc(C)cn12`, the IC90 was found to be 1.73 µM. Besides, under “FFLUC_HILL_SLOPE 0.85, FFLUC_R_SQUARED 0.0513, HEPG2TOX_HILL_SLOPE 0.9, HEPG2TOX_R_SQUARED 0.94, PBLUC_HILL_SLOPE 2.97, PBLUC_R_SQUARED 0.791, read-out: LUCIFERASE INFECTION ASSAY - IC50”, the IC50 worked out at 0.826 µM.
Consider `Nn1c(SCc2cc(F)cc3c2OC(c2ccccc2)OC3)nnc1-c1ccc(OC(F)F)cc1` (stereo not given), for which the IC90 was more than 10 µM. Besides, under “FFLUC_HILL_SLOPE 12.2, FFLUC_R_SQUARED 0.768, read-out: LUCIFERASE INFECTION ASSAY - IC50”, the IC50 was more than 10 µM.
Take `COCCCNc1nnc(Cc2ccc(Cl)cc2)c(O)n1`: the IC90 is more than 10.7 µM. The IC50 (HEPG2TOX_HILL_SLOPE 2.55, HEPG2TOX_R_SQUARED 0.699, PBLUC_HILL_SLOPE 0.604, PBLUC_R_SQUARED 0.236, read-out: LUCIFERASE INFECTION ASSAY - IC50) was 6.39 µM.
`CC(c1ccc(-n2cncn2)cc1)N(C)S(=O)(=O)N1CCc2ccccc2C1` (stereo not given): the IC90 was more than 10 µM. The IC50 (PBLUC_HILL_SLOPE 2.44, PBLUC_R_SQUARED 0.756, read-out: LUCIFERASE INFECTION ASSAY - IC50) turned out to be 6.27 µM.
Consider `O=C(/C(=C/c1ccc(F)cc1)c1ccc(-c2ccccc2)cc1)N1CCN(c2ccccc2Cl)CC1`, for which the IC90 is more than 10 µM. For the same molecule, where the note is “FFLUC_HILL_SLOPE 11.6, FFLUC_R_SQUARED 0.516, HEPG2TOX_HILL_SLOPE 7.73, HEPG2TOX_R_SQUARED 0.736, read-out: LUCIFERASE INFECTION ASSAY - IC50”, the IC50 is more than 10 µM.
As for `CC1=NC(C)=C(C#N)C(c2cc(Br)ccc2OC(F)F)C1C#N` (stereo not given), the IC90 was 4.24 µM. Moreover, the IC50 (HEPG2TOX_HILL_SLOPE 2.06, HEPG2TOX_R_SQUARED 0.906, PBLUC_HILL_SLOPE 11.5, PBLUC_R_SQUARED 0.189, read-out: LUCIFERASE INFECTION ASSAY - IC50) was found to be 3.51 µM.
Take `CCCCNC(=O)c1c(NC(=O)C(C)Oc2ccccc2)nc2ccc(C)cn12` (stereo not given): the IC90 is more than 8.37 µM. Also, the IC50 (HEPG2TOX_HILL_SLOPE 6.71, HEPG2TOX_R_SQUARED 0.423, PBLUC_HILL_SLOPE 12, PBLUC_R_SQUARED 0.638, read-out: LUCIFERASE INFECTION ASSAY - IC50) worked out at 7.31 µM.
With `O=C1c2n[nH]c(-c3ccccc3O)c2C(c2ccccc2F)N1Cc1ccco1` (stereo not given), the IC90 is more than 8.47 µM. The IC50 (FFLUC_HILL_SLOPE 2.17, FFLUC_R_SQUARED 0.481, read-out: LUCIFERASE INFECTION ASSAY - IC50) is more than 8.47 µM.
On to `CC(=O)Nc1cccc(Nc2nccc3[nH]c(-c4cccc(C(F)(F)F)c4)cc23)c1`, for which the IC90 amounted to 2.28 µM. The IC50 under setting [1] is 0.705 µM.
As for `CCOc1ccccc1C(=O)CN1C(=O)COc2ccccc2C1=O`, the IC90 was more than 9.72 µM. Further, under setting [1], the IC50 was more than 9.72 µM.
Regarding `N#Cc1ccc(OC(=O)c2c(Cl)cccc2Cl)cc1`, the IC90 was more than 11.3 µM. For the same molecule, the IC50 (HEPG2TOX_HILL_SLOPE 15.2, HEPG2TOX_R_SQUARED 0.237, read-out: LUCIFERASE INFECTION ASSAY - IC50) was more than 11.3 µM.
With `COc1ccc(C(=O)C(/C=N/N)=N/Nc2ccc(C(F)(F)F)cc2)cc1`, the IC90 worked out at 8.8 µM. For the same molecule, the IC50 (HEPG2TOX_HILL_SLOPE 1.78, HEPG2TOX_R_SQUARED 0.947, PBLUC_HILL_SLOPE 3.28, PBLUC_R_SQUARED 0.359, read-out: LUCIFERASE INFECTION ASSAY - IC50) worked out at 4.5 µM.
On to `Cc1ccc2nc(NC(=O)C(C)Oc3ccccc3)c(C(=O)NC3CCCC3)n2c1` (stereo not given), for which the IC90 was 6.95 µM. Also, under “PBLUC_HILL_SLOPE 4.38, PBLUC_R_SQUARED 0.362, read-out: LUCIFERASE INFECTION ASSAY - IC50”, the IC50 was 4.21 µM.
For the molecule `CN1/C(=C\C=N\NC(=O)c2cccnc2)C(C)(C)c2ccccc21`, the IC90 is more than 10 µM. For the same molecule, for the setting “PBLUC_HILL_SLOPE 4.32, PBLUC_R_SQUARED 0.562, read-out: LUCIFERASE INFECTION ASSAY - IC50”, the IC50 was 7.23 µM.
Consider `Cc1cc(/C=C(\C#N)c2nnc(N3CCOCC3)n2-c2ccccc2)c(C)n1-c1cccc(C(F)(F)F)c1`, for which the IC90 was more than 10 µM. The IC50 (HEPG2TOX_HILL_SLOPE 0.204, HEPG2TOX_R_SQUARED 0.0193, PBLUC_HILL_SLOPE 1.7, PBLUC_R_SQUARED 0.432, read-out: LUCIFERASE INFECTION ASSAY - IC50) was more than 10 µM.
Take `CC(C)(C)c1ccc(OCC(=N)NC(=O)c2ccc(OC(F)(F)F)cc2)cc1`: the IC90 is more than 8.37 µM. For the same molecule, under setting [1], the IC50 is more than 8.37 µM.
With `O=C(OCc1cccc2ccccc12)C1(c2ccccc2)CCN(S(=O)(=O)c2ccccc2)CC1`, the IC90 is more than 10 µM. The IC50 under setting [1] is 4.79 µM.
As to `CCOc1cc(/C=C/C(=O)c2ccc(F)c(Br)c2)cc(Cl)c1OCC(=O)N(C)C`, the IC90 was more than 10 µM. Further, the IC50 under setting [1] is more than 10 µM.
For `CN(C)CCNC(=O)c1ccc(-c2cn3c(-c4ccc5c(ccn5C)c4)cnc3cn2)cc1`, the IC90 is more than 7.53 µM. The half-maximal inhibitory concentration (IC50) (PBLUC_HILL_SLOPE 3.24, PBLUC_R_SQUARED 0.242, read-out: LUCIFERASE INFECTION ASSAY - IC50) is more than 7.53 µM.
Turning to `COc1ccc2c(c1)CCCC21NC(=O)N(Cc2cc(=O)n3cc(C)ccc3n2)C1=O` (stereo not given), the IC90 turned out to be 1.38 µM. The IC50 (PBLUC_HILL_SLOPE 1.52, PBLUC_R_SQUARED 0.761, read-out: LUCIFERASE INFECTION ASSAY - IC50) is 0.324 µM.
`O=C(NC1CCN(c2ccc(S(=O)(=O)C(F)F)cc2)CC1)C1CC1`: the IC90 is more than 10 µM. For the same molecule, under “HEPG2TOX_HILL_SLOPE 4.17, HEPG2TOX_R_SQUARED 0.587, PBLUC_HILL_SLOPE 17, PBLUC_R_SQUARED 0.152, read-out: LUCIFERASE INFECTION ASSAY - IC50”, the IC50 is 8.89 µM.
`c1coc(-c2cn3c(-c4ccsc4)cnc3cn2)c1`: the IC90 was more than 12.3 µM. In addition, for the setting “FFLUC_HILL_SLOPE 11.6, FFLUC_R_SQUARED 0.514, read-out: LUCIFERASE INFECTION ASSAY - IC50”, the IC50 is more than 12.3 µM.
Take `COc1cc(CNCc2ccc3c(c2)OCO3)ccc1OCc1ccc(F)cc1`: the IC90 is more than 8.35 µM. In addition, the IC50 (PBLUC_HILL_SLOPE 2.11, PBLUC_R_SQUARED 0.727, read-out: LUCIFERASE INFECTION ASSAY - IC50) was 5.34 µM.
With `Cc1cccc(C(=O)OC(C)C(=O)Nc2sccc2C#N)c1N` (stereo not given), the IC90 is more than 10 µM. Besides, for the setting “PBLUC_HILL_SLOPE 38.2, PBLUC_R_SQUARED 0.283, read-out: LUCIFERASE INFECTION ASSAY - IC50”, the IC50 is 9.97 µM.
On to `C(=C1\CCc2cnc3scc[n+]3c21)/c1ccccc1`, for which the IC90 was more than 10 µM. Besides, the 50% inhibitory concentration (IC50) (HEPG2TOX_HILL_SLOPE 2.32, HEPG2TOX_R_SQUARED 0.938, read-out: LUCIFERASE INFECTION ASSAY - IC50) was more than 10 µM.
